Results from a flash point compilation (Sun et al. 2020).

Question: With `COC(C)OC` [1,1-dimethoxyethane] as the compound, how does the flash point read?
Answer: -17 °C

Question: Which flash point does the source give for `CCCCOC=O` [butylformate] here?
Answer: 18 °C

Question: For `CC(C)(C)CC(=O)O` [3,3-dimethylbutanoicacid], which flash point is on record?
Answer: 88 °C

Question: For `C=CCCCCCCCCCCCCC` [1-pentadecene], which flash point is on record?
Answer: 113 °C

Question: For `CCCCC(C=O)CC` (centres undefined) [2-ethylhexanal], which flash point is on record?
Answer: 46 °C

Question: For `Cc1ccc(F)cc1C` [1,2-dimethyl-4-fluorobenzene], which flash point is on record?
Answer: 40 °C

Question: For `CCC(O)CO` (centres undefined) [1,2-butanediol], which flash point is on record?
Answer: 93 °C

Question: For `CCC1CCCCCC1=O` (centres undefined) [2-ethylcycloheptanone], which flash point is on record?
Answer: 71 °C

Question: Which flash point does the source give for `C#CC(C)(C)C` [3,3-dimethyl-1-butyne] here?
Answer: -34 °C

Question: Which flash point does the source give for `C=CCOc1ccccc1` [allylphenylether] here?
Answer: 63 °C

Question: Which flash point does the source give for `C#CCCCCCCCCC` [1-undecyne] here?
Answer: 65 °C

Question: With `C=CC(CC)CC` [3-ethyl-1-pentene] as the compound, how does the flash point read?
Answer: -17 °C

Question: With `C=CCCCCCCCC` [1-decene] as the compound, how does the flash point read?
Answer: 38 °C

Question: For `CCC#CCCC` [3-heptyne], which flash point is on record?
Answer: 5 °C

Question: With `CC(C)OCCO` [2-isopropoxyethanol] as the compound, how does the flash point read?
Answer: 43 °C

Question: For `CCCNCCC` [dipropylamine], which flash point is on record?
Answer: 7 °C

Question: Which flash point does the source give for `C=CCN` [allylamine] here?
Answer: -28 °C

Question: Which flash point does the source give for `CCN(C)C` [N-ethyldimethylamine] here?
Answer: -36 °C

Question: With `CC(Cl)Cl` [1,1-dichloroethane] as the compound, how does the flash point read?
Answer: -10 °C

Question: With `CCCCCCCC=O` [octanal] as the compound, how does the flash point read?
Answer: 51 °C

Question: Which flash point does the source give for `CCCCCC#CCCCCl` [1-chloro-4-decyne] here?
Answer: 87 °C

Question: With `CCCCCCC(C)C` [2-methyloctane] as the compound, how does the flash point read?
Answer: 24 °C

Question: Which flash point does the source give for `CCCc1ccccc1` [propylbenzene] here?
Answer: 30 °C

Question: With `CCCN` [propylamine] as the compound, how does the flash point read?
Answer: -30 °C

Question: For `Cc1ccc(I)cc1` [4-iodotoluene], which flash point is on record?
Answer: 90 °C

Question: Which flash point does the source give for `CCCC#CCCC` [4-octyne] here?
Answer: 18 °C

Question: For `CCc1ccco1` [2-ethylfuran], which flash point is on record?
Answer: -2 °C

Question: With `CCc1cccc(CC)c1` [m-diethylbenzene] as the compound, how does the flash point read?
Answer: 51 °C

Question: Which flash point does the source give for `CCCCCS` [1-pentanethiol] here?
Answer: 18 °C

Question: With `C[C@H]1CC[C@@H](C)CC1` [cis-1,4-dimethylcyclohexane] as the compound, how does the flash point read?
Answer: 6 °C

Question: With `CC(C)OC(C)C` [diisopropylether] as the compound, how does the flash point read?
Answer: -28 °C

Question: For `OCCCl` [2-chloroethanol], which flash point is on record?
Answer: 55 °C

Question: For `C1=CC=CC=CC=C1` [1,3,5,7-cyclooctatetraene], which flash point is on record?
Answer: 22 °C

Question: For `CCCCCCCCCCS` [1-decanethiol], which flash point is on record?
Answer: 99 °C

Question: Which flash point does the source give for `C=CCCCCCC=C` [1,8-nonadiene] here?
Answer: 26 °C

Question: For `CC1CO1` (centres undefined) [propyleneoxide], which flash point is on record?
Answer: -37 °C

Question: For `Clc1ccccc1Cl` [1,2-dichlorobenzene], which flash point is on record?
Answer: 68 °C

Question: For `CCC(C)c1ccccc1O` (centres undefined) [2-sec-butylphenol], which flash point is on record?
Answer: 107 °C

Question: With `CCCC(CCC)CCC` [4-propylheptane] as the compound, how does the flash point read?
Answer: 35 °C

Question: Which flash point does the source give for `CCCC(O)CC` (centres undefined) [3-hexanol] here?
Answer: 45 °C

Question: With `CCC(C)CC` [3-methylpentane] as the compound, how does the flash point read?
Answer: -32 °C

Question: For `CC(C)CC(C)O` (centres undefined) [4-methyl-2-pentanol], which flash point is on record?
Answer: 41 °C

Question: For `C1COCCO1` [1,4-dioxane], which flash point is on record?
Answer: 11 °C

Question: Which flash point does the source give for `C#CCCCCC` [1-heptyne] here?
Answer: -2 °C

Question: For `CCN(CC)CC` [triethylamine], which flash point is on record?
Answer: -9 °C

Question: For `CCCOC(C)=O` [propylacetate], which flash point is on record?
Answer: 10 °C

Question: For `Brc1ccccc1` [bromobenzene], which flash point is on record?
Answer: 51 °C

Question: Which flash point does the source give for `CCCCC(=O)O` [pentanoicacid] here?
Answer: 85 °C

Question: With `C=C(C)CCC` [2-methyl-1-pentene] as the compound, how does the flash point read?
Answer: -27 °C

Question: Which flash point does the source give for `CCCCCCCC(C)=O` [2-nonanone] here?
Answer: 68 °C

Question: For `CC(C)CC(=O)CC(C)C` [diisobutylketone], which flash point is on record?
Answer: 49 °C

Question: Which flash point does the source give for `CCC(C)c1ccc(N)cc1` (centres undefined) [4-sec-butylaniline] here?
Answer: 108 °C

Question: With `CC(C)C(C)(C)C` [2,2,3-trimethylbutane] as the compound, how does the flash point read?
Answer: -24 °C

Question: For `CC(C)(C)CC(C)(C)C` [2,2,4,4-tetramethylpentane], which flash point is on record?
Answer: 6 °C

Question: For `CCCCCCC(=O)CC` [3-nonanone], which flash point is on record?
Answer: 63 °C

Question: With `C#CCCC` [1-pentyne] as the compound, how does the flash point read?
Answer: -34 °C

Question: Which flash point does the source give for `CCCCOC` [butylmethylether] here?
Answer: -10 °C

Question: Which flash point does the source give for `CCc1cccc(Br)c1` [1-bromo-3-ethylbenzene] here?
Answer: 71 °C

Question: Which flash point does the source give for `C1CCCCCCCC1` [cyclononane] here?
Answer: 43 °C

Question: With `CCCCC(=O)CCC` [4-octanone] as the compound, how does the flash point read?
Answer: 45 °C

Question: Which flash point does the source give for `CCCCCCCCCCCO` [1-undecanol] here?
Answer: 115 °C

Question: Which flash point does the source give for `CCC(C)(C)OC(C)=O` [tert-pentylacetate] here?
Answer: 25 °C

Question: Which flash point does the source give for `CCCCCCCCOC=O` [octylformate] here?
Answer: 69 °C

Question: With `CCCCCOCCCCC` [dipentylether] as the compound, how does the flash point read?
Answer: 57 °C
